# Data taken from patent US20150125904A1, “PROBE INCORPORATION MEDIATED BY ENZYMES” (Massachusetts Institute of Technology, priority 2012, published 2015).
# Like-named read-outs stand apart in the source and are kept apart here.
# Key:
# [1] = cited from earlier work
# [2] = Kinetic analysis of the CuAAC reaction (fluorogenic click with 7-ethynyl coumarin); conditions: for effect of ring substituent on CuAAC reaction: 10 μM CuSO4, no ligand; for improvement in initial CuAAC rate over carbocyclic analog: 10 μM CuSO4, no accelerating ligand, 2 vs 1, 4 vs 3
# Method: FIG. 4 is a graph illustrating in vitro analysis of CuAAC rates with chelating azides. A: A fluorogenic click reaction with 7-ethynyl coumarin was used to quantify CuAAC reaction progress. Zhou et al., JACS, 126:8862-8863 (2004). B: Various chelating azide structures tested and their CuAAC reaction yields after 10 min and 30 min. Reactions were run with 10 μM CuSO4 and no ligand (THPTA or BTTAA). C: Kinetic comparison of chelating azide 4 and its non-chelating benzyl counterpart 3 at different copper concentrations. CuAAC product was quantified using the assay in A), at 100, 40, and 10 μM CuSO4, both in the absence and presence of Cu(I) ligand THPTA. Measurements were performed in triplicate. Error bars, ±s.d.
# Fluorescence was converted to coumarin triazole product quantity by comparison to standard curves, individually generated for each azide-coumarin alkyne adduct. Entries with less than 1% reaction yield (azides 1 and 3) are omitted from the plot. Measurements were performed in triplicate. Error bars, ±s.d.
# General reaction conditions: 20 μM azide, 40 μM 7-ethynyl coumarin (A), and 4 mM sodium ascorbate in 100 mM sodium phosphate buffer at pH 7.4 at 25±1° C. 100 μM Tempol was added to each reaction to minimize Cu-dependent fluorescence quenching of 7-ethynyl coumarin and coumarin-triazoles. FIG. 4A.
# Reactions were initiated by the addition of CuSO4: 10 μM for the azide compounds shown in FIG. 4B, and 10, 40, or 100 μM for the compounds shown in FIG. 4C. In FIG. 4C when THPTA was included, the THPTA:copper ratio was fixed at a 4:1 molar ratio. Coumarin fluorescence was recorded on a Tecan SAFIRE microplate reader at 2-min intervals for 30 min with excitation at 320 nm and emission detection at 430 nm. For each azide, the turn-on fluorescence of coumarin was correlated to % conversion to product using a calibration curve made from a mixture of known concentrations of 7-ethynyl coumarin and coumarin-triazole adduct of each azide, as follows:
# Coumarin-triazole standards for azide 1, 2, 5, 6, and 7 (FIG. 4B) were generated from reacting 120 μM of each azide with 100 μM 7-ethynyl coumarin until 7-ethynyl coumarin was fully converted to the triazole adduct, using 100 μM CuSO4, 400 μM THPTA, and 4 mM sodium ascorbate. […] Such reaction mixture, now representing coumarin-triazole of a known concentration (100 μM), was then mixed with 7-ethynyl coumarin in defined ratios in the presence of 20-fold molar excess of EDTA relative to CuSO4, (which was carried over from the triazole generation reaction), to generate the calibration curve above.
# Coumarin-triazole standards for azide 3 and 4 were generated from purified coumarin-triazole adducts for each azide (synthetic methods described below). Calibration curves were generated for azide 3 and 4 using coumarin-triazoles from crude reaction mixtures as described above, and found them to perform similarly to calibration curves generated from purified triazoles. FIG. 4C.
# [3] = target: T1, Wild-type LplA (Escherichia coli, UniProt P32099); conditions: cited from earlier work
# T1 construct: His6 (N); made in house; host or cells: E. coli
# T1 sequence (P32099 2-338): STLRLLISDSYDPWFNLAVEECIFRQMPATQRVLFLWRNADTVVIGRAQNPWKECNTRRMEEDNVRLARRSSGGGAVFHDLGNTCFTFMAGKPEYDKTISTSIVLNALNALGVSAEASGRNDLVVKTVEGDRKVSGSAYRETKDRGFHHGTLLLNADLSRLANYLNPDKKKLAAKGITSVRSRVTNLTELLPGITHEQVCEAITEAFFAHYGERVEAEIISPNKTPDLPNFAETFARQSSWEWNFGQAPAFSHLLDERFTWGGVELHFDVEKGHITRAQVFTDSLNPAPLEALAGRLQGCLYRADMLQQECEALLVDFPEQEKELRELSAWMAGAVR
# [4] = tested on: LAP-CFP-TM on HEK cells; assay: Enzyme-catalyzed azide ligation efficiencies at the cell surface (anti-lipoic acid antibody staining); type: cell-based, human; conditions: for lipoylation of remaining LAP sites after azide labeling, relative to condition 3 (100%): 20 min azide ligation, picolyl azide 8 with W37VLplA, 8-azidooctanoic acid with wild-type LplA; for estimated extent of azide ligation: indirectly estimated from lipoylation extent, 20 min
# Method: A: Labeling protocol. HEK cells expressing LAP-CFP-TM were labeled with picolyl azide 8 and W37VLplA, or 8-azidooctanoic acid and wild-type LplA, using the same exact conditions as in FIGS. 6 and 9. Thereafter, cells were washed and any remaining unmodified LAP sites were labeled under forcing conditions with lipoic acid (200 μM lipoic acid, 1 mM ATP, and 20 μM wild-type LplA for 20 min). Anti-lipoic acid antibody staining was used to quantify the extent of lipoylation, and CuAAC was performed thereafter with 20 μM Alexa Fluor® 647-alkyne, 100 μM CuSO4, and 500 μM BTTAA ligand for 5 min. Cells were imaged live. B: Representative confocal images. Results obtained using picolyl azide 8 (condition 2) are shown below results with 8-azidooctanoic acid (condition 1). A negative control with neither azide added during the LplA step is shown in the bottom row (condition 3). The Alexa Fluor® 647 channel reflects CuAAC labeling. The Alexa Fluor® 568 channel reflects anti-lipoic acid antibody labeling. The CFP channel showing LAP-CFP-TM expression is overlaid on DIC. Scale bars, 10 μm. C: Quantitation of data in (B). The mean intensities in all three channels were collected for >90 single cells for each condition. To compare the extents of lipoylation, the Alexa Fluor® 568/CFP ratios were calculated (to normalize for variations in LAP expression level), averaged, and plotted on the graph. CuAAC labeling extent was quantified in a similar way. Error bars, ±s.e.m. Due to the forcing conditions of the LplA-catalyzed lipoylation, we set condition 3 to represent 100% lipoylation extent for the cell surface LAP-CFP-TM population. By comparison, lipoylation after picolyl azide 8 labeling proceeds to 19% that of condition. Lipoylation after 8-azidooctanoic acid labeling proceeds to 37% that of condition 3. Based on these, we can indirectly estimate that picolyl azide 8 ligation proceeds to 81%, and 8-azidooctanoic acid ligation proceeds to 63%, under these conditions.
# Live HEK cells were incubated with rabbit anti-lipoic acid antibody (Calbiochem) in cell growth medium at 1:300 dilution for 10 min at room temperature, followed by two washes with cell growth medium. Thereafter, cells were incubated with anti-rabbit secondary antibody conjugated to Alexa Fluor® 568 (Life Technologies) in cell growth medium at 1:300 dilution for 10 min at room temperature, followed by two washes with cell growth medium.
# [5] = tested on: LAP-CFP-TM on HEK cells; assay: Two-step cell surface protein labeling, PRIME followed by CuAAC (Alexa Fluor 647/CFP ratio); type: cell-based, human
# Method: FIG. 6 is a diagram showing comparison of protein labeling signals on live cells using PRIME and CuAAC, with and without chelating azides. Two-step site-specific protein labeling was performed as in FIG. 3B above and 9 below, on HEK cells expressing LAP-tagged cyan fluorescent protein fused to the transmembrane domain of the PDGF receptor (LAP-CFP-TM). In the first step, either W37VLplA was used to target picolyl azide 8 to LAP, or wild-type LplA was used to ligate non-chelating 8-azidooctanoic acid. The efficiencies of these two ligation reactions are compared in FIG. S5. In the second step, CuAAC was performed for 5 min with Alexa Fluor® 647-alkyne and CuSO4 (10, 40, or 100 μM) in combination with either THPTA or BTTAA ligand (provided in 5-fold excess relative to the CuSO4 concentration). To quantify labeling signals, the mean Alexa Fluor® 647 and mean CFP intensities were calculated for >90 cells for each condition, ratioed to normalize for variations in LAP-CFP-TM expression level, and averaged. Error bars, ±s.e.m.
# A: Two-step site-specific cell surface protein labeling protocol. In the first step, HEK cells expressing LAP-CFP-TM (TM is the transmembrane helix of the PDGF receptor) were labeled with picolyl azide 8 using W37VLplA and ATP added to the cell medium for 20 min. Alternatively, LAP-CFP-TM was labeled with non-chelating azide 8-azidooctanoic acid using wild-type LplA. In the second step, CuAAC was performed for 5 min using Alexa Fluor® 647-alkyne, various concentrations of CuSO4 (10, 40, or 100 μM), and either THPTA or BTTAA ligand added in 4-fold excess of the CuSO4. B: Representative confocal cell images for twelve different conditions (three CuSO4 concentrations, either THPTA or BTTAA ligand, and either alkyl azide or picolyl azide). For each condition, the Alexa Fluor® 647 labeling channel and the CFP channel, overlaid on DIC, are shown. Insets show the Alexa Fluor® 647 channel at higher contrast. Scale bars, 10 μm.
# LplA labeling was performed with picolyl azide 8,8-azidooctanoic acid, or 10-undecynoic acid. CuAAC was performed with either alkyne, picolyl azide, or alkyl azide conjugates to Alexa Fluor® 647. A: Representative images showing labeling of LAP-CFP-TM on the surface of live HEK cells under four different conditions. CFP channels are shown, along with Alexa Fluor® 647 labeling channels normalized to the same intensity range (bottom) or not normalized (middle). LplA labeling protocol for all four conditions: 200 μM azide or alkyne substrate, 10 μM LplA (wild-type or mutant), 1 mM ATP, and 5 mM Mg(OAc)2 in cell culture medium for 20 min. […] B: Quantitation of data in (A). Average Alexa Fluor® 647/CFP intensity ratios were calculated for ˜50 single cells from each condition. […]
# [6] = conjugation to LAP, previously reported
molecule,measurement,setting,value
"6,8-difluoro-7-hydroxycoumarin [Pacific Blue]",pKa of 7-OH substituent,[1],3.7
"COc1ccnc(CN=[N+]=[N-])c1 [Azide 6, 2-Azidomethyl-4-methoxypyridine]",effect of ring substituent on CuAAC reaction,[2],further accelerated the CuAAC reaction
"[N-]=[N+]=NCc1cc(Cl)ccn1 [Azide 7, 2-Azidomethyl-4-chloropyridine]",effect of ring substituent on CuAAC reaction,[2],dampened the accelerating effect
O=C(O)CCCC[C@@H]1CCSS1 (racemic) [lipoic acid],kcat,[3]; lipoic acid ligation by wild-type LplA,0.22 s⁻¹
"[N-]=[N+]=NCc1ccccn1 [Azide 2, 2-azidomethylpyridine]",improvement in initial CuAAC rate over carbocyclic analog,[2],43 fold
"[N-]=[N+]=NCc1ccc(C(=O)O)cn1 [Azide 4, 6-Azidomethylnicotinic acid]",improvement in initial CuAAC rate over carbocyclic analog,[2],14 fold
same,time for CuAAC reaction to completion,"[2]; THPTA absent, 100 and 40 uM Cu",≤ 30 min
same,time for CuAAC reaction to completion,"[2]; THPTA added, all three copper concentrations (10, 40, 100 μM)",≤ 5 min
"[N-]=[N+]=NCc1ccc(C(=O)O)cc1 [Azide 3, 4-azidomethylbenzoic acid, reference compound]",time for CuAAC reaction to completion,"[2]; THPTA added, 100 and 40 uM Cu",≤ 30 min
"[N-]=[N+]=NCc1ccc(C(=O)NCCCCC(=O)O)cn1 [Picolyl azide 8, 5-(6-(Azidomethyl)nicotinamido)pentanoic acid]","lipoylation of remaining LAP sites after azide labeling, relative to condition 3 (100%)",[4],19%
same,difference in ligation extent over 8-azidooctanoic acid ligation,[4]; 20 min labeling conditions,at most 1.5 fold
same,estimated extent of azide ligation,[4],81%
same,signal of picolyl azide ligation followed by fluorophore-alkyne relative to alkyne ligation followed by fluorophore-picolyl azide,"[5]; 100 μM CuSO4, 500 μM THPTA, 5 min (FIG. 13)",~2.4 fold
same,"boost of cell signal on replacement of 8-azidooctanoic acid, corrected for enzymatic ligation efficiencies","[5]; 10, 40, 100 μM Cu, THPTA or BTTAA, corrected",≤ 25 fold
same,"signal relative to alkyl azide at 100 μM Cu (+THPTA), corrected value",[5]; picolyl azide at 10 μM Cu (+THPTA),1.6 fold
same,"signal relative to alkyl azide at 100 μM Cu, corrected value","[5]; picolyl azide at 40 μM Cu, BTTAA",3.9 fold
"[N-]=[N+]=NCCCCCCCC(=O)O [8-azidooctanoic acid, reference compound]","lipoylation of remaining LAP sites after azide labeling, relative to condition 3 (100%)",[4],37%
same,estimated extent of azide ligation,[4],63%
same,Km,[3]; [6],127 µM
same,kcat,[3]; [6],0.111 s⁻¹
